Data from patent publication US10259846B2, “Bouvardin derivatives and therapeutic uses thereof” (The Regents of the University of Colorado, a body corporate, priority 2012, dated 2019).
Where two headings read alike, the source gives them in different places.

Key:
rabbit reticulocytes = assay: In vitro translation assay (luciferase mRNA); assay type: biochemical; conditions: luciferase activity; 15 minutes at 37° C.
Experimental: In vitro translation assays were performed in rabbit reticulocytes (Promega) according to manufacturer's instruction, in the presence or absence of drug at final concentrations shown. Luciferase mRNA provided in the kit was used at a final concentration of 1 μg/μl. The reaction samples were incubated for 15 minutes at 37° C. and quenched by dilution with water. Luciferase activity was measured using a plate reader Multi-Mode Microplate Reader (Synergy 2 by BioTek) immediately after luciferase substrate addition.

T98G glioma cells = assay: Cell growth assay (CellTiter-Glo), T98G glioma cells; assay type: cell-based; conditions: for inhibitory effects on cell growth: single agent, 10 μM and 100 μM, 6 days (FIG. 11)
Experimental: (§1) Two glioma cell lines were used (U87MG and T98G). The growth inhibitory effects of chemical compounds were evaluated using CellTiter-Glo® Luminescent Cell Viability Assay (Promega G7570). The CellTiter-Glo® Reagent lyses cells and generates a luminescent signal proportional to the amount of ATP present. In this assay, 4,000 viable cells were plated in 100 μL of growth medium in 96-well plates (Corning). Following an overnight incubation, drugs were added in varying concentrations and incubated for 6 days. 100 μL of CellTiter-Glo® Reagent was added to each well. Plates were incubated with mixing at room temperature for 30 minutes. Luminescence of each well was measured using an automated plate reader.

U87MG glioma cells = assay: Cell growth assay (CellTiter-Glo), U87MG glioma cells; assay type: cell-based; conditions: single agent; 10 μM and 100 μM; 6 days (FIG. 10)
Experimental: as §1

HS294T melanoma cells [1] = assay: Clonogenic assay (sulfhorhodamine B), HS294T; assay type: cell-based, human
Experimental: HS294T melanoma cells were plated at a low concentration to allow for the formation of single colonies. These cells were then treated with meta Br-N-29-H RA-VII alone, PLX4032 alone and a combination of the two and then processed using the quantitative sulfhorhodamine B assay.

mice = conditions: cited from earlier work
[2] = test system: WM35 (lower grade, radial phase) melanoma cell line; assay: Cell growth assay IC50, WM35 melanoma cell line; assay type: cell-based, human
Experimental: as §1, with “Seven cell lines, lung cancer cell line H157, HNC” for “Two glioma”, “lines Det562 and FaDu, and melanoma cell lines WM35, A375, 1205Lu and HS294T” for “lines”, “studied.” for “used (U87MG and T98G).”, “˜4,000” for “4,000”, “reader. Survival was plotted against drug concentration to compute IC50.” for “reader.”
(§2) The ability of bouvardin and meta Br-N-29-H RA-VII to inhibit the growth of Melanoma cells in culture was studied. […] Both compounds show greater efficacy in higher grade, metastatic melanoma cell lines than in a lower grade melanoma line.

[3] = Combination Index from cell growth assays with targeted agents (FIG. 22); assay type: cell-based; conditions: over a range of FA (fraction affected)
Experimental: The combinations of meta Br-N-29-H RA-VII and three commercially available targeted agents (PLX4032 BRAF inhibitor, TAK-333 MEK inhibitor and PF-0491502 P13K/TOR dual inhibitor) were tested at various drug doses. Combination Index values were computed from cell growth assays as previously described (Gladstone et al., Disease Models and Mechanisms, 2012, PMID: 22344740). The tables show average CI values for the combination of meta Br-N-29-H RA-VII and each targeted agent. FA=‘fraction affected’ or fraction of cells killed, reflecting the drug doses used. The CI values that indicate three modes on drug-drug interaction are indicated in the legend and differentially shaded in the table. CI˜1 denote additive action (un-shaded). CI>1 denote antagonistic action (darker shade).

[4] = test system: A375 (higher grade) melanoma cell line; assay: Cell growth assay IC50, A375 melanoma cell line; assay type: cell-based, human
Experimental: as §1, with “Seven cell lines, lung cancer cell line H157, HNC” for “Two glioma”, “lines Det562 and FaDu, and melanoma cell lines WM35, A375, 1205Lu and HS294T” for “lines”, “studied.” for “used (U87MG and T98G).”, “˜4,000” for “4,000”, “reader. Survival was plotted against drug concentration to compute IC50.” for “reader.”
as §2

[5] = test system: HS294T metastatic melanoma cells; assay: Combination with PLX4032, combination index, HS294T; assay type: cell-based, human; conditions: combination with PLX4032, wide range of drug concentrations
From the text: The dotted line indicates fraction survival expected if meta Br-N-29-H RA-VII and PLX4032 are act in an additive manner. The observed effect of the combination is […], indicating synergy. This represents a subset of a larger data set that includes the result of a wide range of drug doses. The complete dataset is in FIGS. 16 and 17.
CI of less than 1 indicates synergy, which is seen for a wide range of drug concentrations. […] This illustrates that at doses that show synergy, significant fractions of cells are killed or inhibited from growing.

HS294T melanoma cells [6] = assay: Exposure-time cell viability assay, HS294T; assay type: cell-based, human; conditions: IC70 concentration; viability read after 5 days
Experimental: (§3) The cell growth assays used to measure IC50 and synergy involve leaving the drug on the cells for 5 days. However, this length of time may or may not be necessary to see efficacy. To address this, two Bouvardin derivatives (meta Br-N-29-H RA-VII and mera Cl-N-29-H RA-VII) were exposed to different melanoma and head and neck cells for various amounts of time. Cells were plated at 4,000 cells per well in 96 well plates and allowed to adhere for 24 hrs before adding meta Br-N-29-H RA-VII or meta Cl-N-29-H RA-VII at an IC70 concentration for each cell line. The drug was removed after various times (12 hr, 1 day, 2 days, 3 days, 4 days) by replacement with fresh media. After 5 days, cell viability was determined using CellTiter-Glo® Luminescent Cell Viability Assay (Promega G7570), which measures ATP levels. Bouvardin or BVD at 12 hr exposure was used as a control. […] While the maximal effect of meta Br-N-29-H RA-VII was not reached at the same time for all of the lines, the drug is affecting each cell line to some degree by 24 hrs.

[7] = test system: FaDu Head and Neck cancer cells; assay: Exposure-time cell viability assay, FaDu; assay type: cell-based, human; conditions: IC70 concentration; viability read after 5 days
Experimental: as §3

A375 melanoma cells = assay: Exposure-time cell viability assay, A375; assay type: cell-based, human; conditions: IC70 concentration; viability read after 5 days
Experimental: as §3

Melanoma cells = assay: Growth inhibition of Melanoma cells in culture, alone and combined; assay type: cell-based, human
From the text: as §2
Synergy is seen in cell lines with a wide range of sensitivity to PLX4032, i.e. both PLX4032-sensitive and PLX4032-resistant lines.

HS294T melanoma cells [8] = assay: Combination with ionizing radiation, combination index, HS294T; assay type: cell-based, human; conditions: range of drug doses and radiation
From the text: CI values are shown for a range of drug doses and radiation. CI<1 indicates synergy.

[9] = test system: Det562 Head and Neck cancer cells; assay: Exposure-time cell viability assay, Det562; assay type: cell-based, human; conditions: IC70 concentration; viability read after 5 days
Experimental: as §3

1205Lu melanoma cells = assay: Exposure-time cell viability assay, 1205Lu; assay type: cell-based, human; conditions: IC70 concentration; viability read after 5 days
Experimental: as §3

[10] = test system: human primary fibroblasts; conditions: published report (Dolma et al., 2003); cited from earlier work
[11] = test system: human primary fibroblasts; assay: Bouvardin on primary versus oncogene-transformed human fibroblasts; assay type: cell-based; conditions: fibroblasts transformed with more and more oncogenes (FIG. 16)
[12] = combination of meta Br-N-29-H RA-VII and PLX4032

COc1ccc(C[C@H](NC(=O)[C@H](Cc2ccc(O)cc2)N(C)C(=O)OC(C)(C)C)C(=O)OCc2ccccc2)cc1Br [Compound 1-7]
inhibition of protein translation in in vitro translation assay (rabbit reticulocytes): do not appear to inhibit protein translation
inhibitory effects on cell growth (T98G glioma cells): potent inhibitory effects
inhibitory effects on cell growth (U87MG glioma cells): potent inhibitory effects

COc1ccc(C[C@H](NC(=O)[C@H](Cc2ccc(O)cc2)N(C)C(=O)OC(C)(C)C)C(=O)OCc2ccccc2)cc1B1OC(C)(C)C(C)(C)O1 [Compound 1-8]
inhibition of protein translation in in vitro translation assay (rabbit reticulocytes): do not appear to inhibit protein translation
inhibitory effects on cell growth (T98G glioma cells): potent inhibitory effects
inhibitory effects on cell growth (U87MG glioma cells): potent inhibitory effects

COc1ccc(C[C@H](NC(=O)[C@H](Cc2ccc(O)cc2)N(C)C(=O)OC(C)(C)C)C(=O)OCc2ccccc2)cc1B(O)O [Compound 1-9]
inhibition of protein translation in in vitro translation assay (rabbit reticulocytes): do not appear to inhibit protein translation
inhibitory effects on cell growth (T98G glioma cells): potent inhibitory effects
inhibitory effects on cell growth (U87MG glioma cells): potent inhibitory effects

CCCS(=O)(=O)Nc1ccc(F)c(C(=O)c2c[nH]c3ncc(-c4ccc(Cl)cc4)cc23)c1F [PLX4032, Vemurafenib, reference compound]
survival compared to untreated cells (HS294T melanoma cells [1]; 500 nM, alone): around 60%

COc1cccc2c1C(=O)c1c(O)c3c(c(O)c1C2=O)C[C@@](O)(C(=O)CO)C[C@@H]3O[C@H]1C[C@H](N)[C@H](O)[C@H](C)O1 [doxorubicin]
LD50 (mice): 12.5 mg/kg

COc1ccc(C[C@H]2C(=O)N[C@@H](C)C(=O)N(C)[C@H]3Cc4ccc(cc4)Oc4cc(c(Br)cc4OC)C[C@H](NC3=O)C(=O)N[C@H](C)C(=O)N[C@@H](C)C(=O)N2C)cc1 [meta Br-N-29-H RA-VII]
IC50 ([2]; Homo sapiens): 1170 nM
interaction (average Combination Index) with PF-0491502 P13K/TOR dual inhibitor [3]: displays synergy
interaction (average Combination Index) with PLX4032 BRAF inhibitor [3]: displays synergy
interaction (average Combination Index) with TAK-333 MEK inhibitor [3]: displays synergy
survival compared to untreated cells (HS294T melanoma cells [1]; 20 nM, alone): greater than 90%
predicted survival if the two treatments were additive (HS294T melanoma cells [1]; [12]): 50%
survival compared to untreated cells (HS294T melanoma cells [1]; [12]): less than 20%
inhibition of protein translation in in vitro translation assay (rabbit reticulocytes): dose-dependent response
IC50 ([4]; Homo sapiens, A-375): 100 nM
interaction with PLX4032 (combination index; CI of less than 1 indicates synergy) [5]: synergize
exposure time to maximal response (same as 5 day) (HS294T melanoma cells [6]): 3 to 4 days
response at 12 hr exposure (HS294T melanoma cells [6]): partial response
exposure time to maximal response [7]: 4 days
response at 12 hr exposure [7]: no response
response in cell growth assay (T98G glioma cells; T98G glioma cells (FIG. 12)): dose-dependent response
exposure time to maximal response (same as 5 day) (A375 melanoma cells): 2 to 3 days
response at 12 hr exposure (A375 melanoma cells): partial response
times less effective (greater IC50) than bouvardin (Melanoma cells; Melanoma cells): 5 to 10 times
synergy with BRAF inhibitor Vemurafenib (PLX4032) (Melanoma cells; combination, PLX4032-sensitive and PLX4032-resistant lines): synergizes best and over a wide range of meta Br-N-29-H RA-VII doses
interaction with ionizing radiation (combination index; CI<1 indicates synergy) (HS294T melanoma cells [8]): shows synergy
exposure time to maximal response [9]: 4 days
response at 12 hr exposure [9]: partial response
exposure time to maximal response (same as 5 day) (1205Lu melanoma cells): 4 days
response at 12 hr exposure (1205Lu melanoma cells): partial response

bouvardin
IC50 [2]: 124 nM
IC50 in primary human cells versus transformed cells [10]: higher IC50 (lower efficacy) in primary human cells than in transformed cells
IC50 [4]: 12 nM
IC, for bouvardin [11]: decreases as human primary fibroblasts are transformed with more and more oncogenes
LD50 (mice): 12.4 mg/kg
